Data as given in ChEMBL document CHEMBL1201862, “PubChem BioAssay data set” (2004).
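Dose response: 5 concentrations. Exposure: 48 h. Format: 96-well plates. Endpoint: linear interpolation; highest concentration if not reached. GI50 = concentration required for 50% inhibition of growth.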 Active and inactive are the calls of the source. No stated cut-off is given here; in the data, active = GI50 up to about 1.1 µM and inactive = higher.

Key:
Assay in all cases: inhibition of tumour cell growth, NCI panel, 48 h
[1] = system: M14
[2] = system: KM12
[3] = system: SF-268
[4] = system: IGROV-1
[5] = system: NCI-H460
[6] = system: UO-31
[7] = system: RPMI-8226
[8] = system: NCI/ADR-RES
[9] = system: TK-10
[10] = system: MCF7
[11] = system: SW-620
[12] = system: SK-MEL-2
[13] = system: OVCAR-8
[14] = system: HCC 2998
[15] = system: K562
[16] = system: HCT-116
[17] = system: ACHN
[18] = system: MDA-N
[19] = system: A549

SMILES | GI50 [1] | GI50 [2] | GI50 [3] | GI50 [4] | GI50 [5] | GI50 [6] | GI50 [7] | GI50 [8] | GI50 [9] | GI50 [10] | GI50 [11] | GI50 [12] | GI50 [13] | GI50 [14] | GI50 [15] | GI50 [16] | GI50 [17] | GI50 [18] | GI50 [19]
O=C(NC1CCCCC1)c1cc2ccccc2cc1O | 21.9 µM (inactive) | 34.2 µM (inactive) | 46.1 µM (inactive) | 35.5 µM (inactive) | 26.1 µM (inactive) | 32.4 µM (inactive) | 17.7 µM (inactive) | 17.7 µM (inactive) | 73.3 µM (inactive) | 39.2 µM (inactive) | 35.2 µM (inactive) | 23.3 µM (inactive) | 26.2 µM (inactive) | 23.5 µM (inactive) | 27.7 µM (inactive) | 18.7 µM (inactive) | – | – | –
c1ccc2c(c1)nnn2CN1CCOCC1 | > 100 µM (inactive) | > 100 µM (inactive) | 63.8 µM (inactive) | 94.4 µM (inactive) | 46.3 µM (inactive) | > 100 µM (inactive) | – | > 100 µM (inactive) | > 100 µM (inactive) | – | 28.3 µM (inactive) | > 100 µM (inactive) | 36.3 µM (inactive) | – | 45 µM (inactive) | > 100 µM (inactive) | > 100 µM (inactive) | 71.6 µM (inactive) | > 100 µM (inactive)
CC1CN=C(NCc2ccccc2)S1 (configuration not stated) | > 100 µM (inactive) | > 100 µM (inactive) | > 100 µM (inactive) | – | > 100 µM (inactive) | > 100 µM (inactive) | > 100 µM (inactive) | – | > 100 µM (inactive) | > 100 µM (inactive) | – | > 100 µM (inactive) | – | > 100 µM (inactive) | 48.2 µM (inactive) | > 100 µM (inactive) | > 100 µM (inactive) | 28.4 µM (inactive) | –
COC(C/C=C\C=C\CC/C=C/CC(C)/C=C/C(=C\C(=O)O)CC(=O)O)/C(C)=C\C=C(/C)C(=O)O (configuration not stated) | > 100 µM (inactive) | > 100 µM (inactive) | > 100 µM (inactive) | > 100 µM (inactive) | > 100 µM (inactive) | > 100 µM (inactive) | > 100 µM (inactive) | – | > 100 µM (inactive) | – | > 100 µM (inactive) | > 100 µM (inactive) | – | > 100 µM (inactive) | – | > 100 µM (inactive) | – | > 100 µM (inactive) | > 100 µM (inactive)
CC1(C)CC2=NO[Se]3=C2C(=NO3)C1 | 1.99 µM (inactive) | 2.64 µM (inactive) | 5.3 µM (inactive) | 2.72 µM (inactive) | 1.34 µM (inactive) | 2.98 µM (inactive) | 3.14 µM (inactive) | – | 4.29 µM (inactive) | 3.27 µM (inactive) | 3.16 µM (inactive) | 5.78 µM (inactive) | 2.38 µM (inactive) | 5.19 µM (inactive) | 2.72 µM (inactive) | 0.485 µM (active) | 1.72 µM (inactive) | 1.95 µM (inactive) | 3.42 µM (inactive)
O=C(Nn1c(-c2ccccc2)nc2ccccc2c1=O)c1cccc([N+](=O)[O-])c1 | > 100 µM (inactive) | > 100 µM (inactive) | > 100 µM (inactive) | > 100 µM (inactive) | 53.8 µM (inactive) | 39.3 µM (inactive) | 46.8 µM (inactive) | – | 91.8 µM (inactive) | 38 µM (inactive) | > 100 µM (inactive) | – | > 100 µM (inactive) | > 100 µM (inactive) | > 100 µM (inactive) | > 100 µM (inactive) | 86.7 µM (inactive) | > 100 µM (inactive) | 44.4 µM (inactive)
N[C@@H]1c2c(Br)sc(Br)c2C(=O)[C@H]1Br | 20.6 µM (inactive) | 26.4 µM (inactive) | 31.2 µM (inactive) | 20.6 µM (inactive) | 57.1 µM (inactive) | 27.9 µM (inactive) | 7.45 µM (inactive) | 22.2 µM (inactive) | > 100 µM (inactive) | 36.7 µM (inactive) | 18.7 µM (inactive) | > 100 µM (inactive) | 20.5 µM (inactive) | 31.3 µM (inactive) | > 28.3 µM (inactive) | 17.3 µM (inactive) | 20.6 µM (inactive) | – | > 100 µM (inactive)
CN(C)S(=O)(=O)Nc1nnc(S(N)(=O)=O)s1 | > 100 µM (inactive) | > 100 µM (inactive) | > 100 µM (inactive) | > 100 µM (inactive) | > 100 µM (inactive) | > 100 µM (inactive) | > 100 µM (inactive) | > 100 µM (inactive) | > 100 µM (inactive) | > 100 µM (inactive) | > 100 µM (inactive) | > 100 µM (inactive) | – | > 100 µM (inactive) | > 100 µM (inactive) | > 100 µM (inactive) | > 100 µM (inactive) | – | > 100 µM (inactive)
O=C(CSC1=NCCN1)Nc1ccccc1 | 32.9 µM (inactive) | 48 µM (inactive) | 33.3 µM (inactive) | 33.4 µM (inactive) | 31.1 µM (inactive) | 27.4 µM (inactive) | 41.2 µM (inactive) | 26.4 µM (inactive) | 19.2 µM (inactive) | – | 25.8 µM (inactive) | 17.8 µM (inactive) | 29.4 µM (inactive) | 23.8 µM (inactive) | 40.6 µM (inactive) | 23.8 µM (inactive) | 22.4 µM (inactive) | 17.7 µM (inactive) | > 100 µM (inactive)
O=C1NC(N/N=C/c2ccccc2)=N/C1=C\c1ccco1 | 46.2 µM (inactive) | 47.6 µM (inactive) | 24.5 µM (inactive) | 16.9 µM (inactive) | 20.7 µM (inactive) | 46.8 µM (inactive) | 21.1 µM (inactive) | 32.7 µM (inactive) | 31.5 µM (inactive) | 40.2 µM (inactive) | 46 µM (inactive) | 25.9 µM (inactive) | 16.1 µM (inactive) | 32.1 µM (inactive) | – | 42.9 µM (inactive) | 21.9 µM (inactive) | – | 27.7 µM (inactive)
O=C(O)c1nc2ccccc2nc1Nc1ccc(Cl)c(Cl)c1 | 24.5 µM (inactive) | 10.8 µM (inactive) | 17.9 µM (inactive) | 20.5 µM (inactive) | 13.6 µM (inactive) | 15.6 µM (inactive) | 35.3 µM (inactive) | 27.9 µM (inactive) | 42.9 µM (inactive) | – | 31.7 µM (inactive) | – | 41.1 µM (inactive) | 18.2 µM (inactive) | 21.7 µM (inactive) | 22.5 µM (inactive) | 29.5 µM (inactive) | 24.9 µM (inactive) | 24.1 µM (inactive)
CNC(C)(C)Cc1ccc(Cl)cc1 | > 100 µM (inactive) | > 100 µM (inactive) | > 100 µM (inactive) | > 100 µM (inactive) | > 100 µM (inactive) | – | > 100 µM (inactive) | – | > 100 µM (inactive) | – | > 100 µM (inactive) | > 100 µM (inactive) | > 100 µM (inactive) | > 100 µM (inactive) | > 100 µM (inactive) | > 100 µM (inactive) | > 100 µM (inactive) | – | > 100 µM (inactive)
C#CCOC(=O)C(N)C(C)O (configuration not stated) | > 100 µM (inactive) | > 100 µM (inactive) | > 100 µM (inactive) | > 100 µM (inactive) | – | > 100 µM (inactive) | > 100 µM (inactive) | > 100 µM (inactive) | > 100 µM (inactive) | > 100 µM (inactive) | > 100 µM (inactive) | > 100 µM (inactive) | > 100 µM (inactive) | – | > 100 µM (inactive) | > 100 µM (inactive) | > 100 µM (inactive) | > 100 µM (inactive) | > 100 µM (inactive)
Nc1ncnc2c1ncn2Cc1cccc(CCl)c1 | 14.1 µM (inactive) | 15.1 µM (inactive) | 14.7 µM (inactive) | 16.3 µM (inactive) | 14.2 µM (inactive) | 16.5 µM (inactive) | 5.38 µM (inactive) | 18.5 µM (inactive) | 17 µM (inactive) | 10 µM (inactive) | 12.4 µM (inactive) | 15 µM (inactive) | 16.1 µM (inactive) | – | 21.9 µM (inactive) | 10.4 µM (inactive) | 14.8 µM (inactive) | – | 21.8 µM (inactive)
CSc1nc2c(nc(N)n2C2OC(COC(C)=O)C(OC(C)=O)C(OC(C)=O)C2OC(C)=O)c(=O)n1C (configuration not stated) | > 100 µM (inactive) | > 100 µM (inactive) | – | > 100 µM (inactive) | > 100 µM (inactive) | > 100 µM (inactive) | > 100 µM (inactive) | – | > 100 µM (inactive) | – | > 100 µM (inactive) | > 100 µM (inactive) | > 100 µM (inactive) | > 100 µM (inactive) | > 100 µM (inactive) | > 100 µM (inactive) | > 100 µM (inactive) | – | > 100 µM (inactive)
CC(=O)OC(Cn1cncn1)(Cn1cncn1)c1ccc(Cl)cc1Cl | > 100 µM (inactive) | > 100 µM (inactive) | > 100 µM (inactive) | > 100 µM (inactive) | > 100 µM (inactive) | > 100 µM (inactive) | > 100 µM (inactive) | > 100 µM (inactive) | > 100 µM (inactive) | > 100 µM (inactive) | > 100 µM (inactive) | > 100 µM (inactive) | > 100 µM (inactive) | > 100 µM (inactive) | > 100 µM (inactive) | – | – | – | > 100 µM (inactive)
Cc1ccc(/N=N/c2c(C)nn(-c3ccccc3)c2-c2ccccc2)c(Br)c1 | > 100 µM (inactive) | > 100 µM (inactive) | > 100 µM (inactive) | > 100 µM (inactive) | 31.8 µM (inactive) | > 100 µM (inactive) | – | – | > 100 µM (inactive) | – | 63.5 µM (inactive) | > 100 µM (inactive) | > 100 µM (inactive) | 61.8 µM (inactive) | 25.4 µM (inactive) | 12.6 µM (inactive) | 53.8 µM (inactive) | – | > 100 µM (inactive)
